Experimental data: patent publication US20040029197A1, “Novel human cancer/testis antigen and gene thereof” (priority 2000, published 2004)
Where no end group is shown, it is not given here.

System: C1R-A24 cells
Assay: Cytotoxity test (51Cr release) with peptide-stimulated CD8-positive T cells of a cancer patient
Assay type: cell-based, human
Details: target C1R-A24 cells added with 1 iM of the peptide, effecter CD8-positive T cells after MLPC twice, six hours, FIG. 8
Description: Peripheral blood of a patient whose D40 gene expression in the tumor tissue was observed by RT-PCR method was multi-layered in Ficoll-Conray solution with specific gravity of 1.082 and the blood was separated to plasma, lymphocyte phase, Ficoll-Conray phase and erythrocyte phase from the top by centrifugation of 1500 rpm for 30 min. The lymphocyte phase was collected and cultured for a day in AIM-V, a serum-free medium, after which the cell population adhered to the bottom of the culture flask and the suspended cell population were separated by gently shaking the flask. The adhered cell population is a cell population called PBMC (peripheral blood mononuclear cells) which includes B cells, macrophages and dendritic cells that are so-called antigen-presenting cells (APC). […] The APC after the culture were treated with radioactivity in order to get rid of their proliferation ability.
On the other hand, the suspended cell population mainly contains T cells and these suspended cells were cultured in AIM−V+IL−2 for four days. […] These CD8-positive T cells were added to APC, which have been treated with radioactivity as mentioned above, and cultured for two days. […] Then the radioactivity of ^51Cr released from the target C1R-A24 cells were measured and the cytotoxity activity (%) was calculated. […]

SYTIEINHRL [SYTIEINHRL, Ser-Tyr-Thr-Ile-Glu-Ile-Asn-His-Arg-Leu]
cytotoxic activity of T cells derived from peripheral blood of a cancer patient: specifically injured target C1R-A24 cells
